Assay results: patent US8318947B2, “Comestible compositions comprising high potency savory flavorants, and processes for producing them” (Senomyx, Inc., priority 2006, dated 2012)

Key:
[1] = test system: human panelists, savory taste; assay: Savory taste test with trained human panel (difference from reference); format: in vivo; settings: for Taste Data: cpd concentration at which 12 mM MSG + cpd is as strong as 12 mM MSG + 100 μM IMP: with 12 mM MSG, reference 12 mM MSG + 100 μM IMP; for Taste Data: cpd concentration as strong as 12 mM MSG: compound alone, without MSG
Method: General Panelist Selection: Basic screening of sensory taste testers: Potential panelists were tested for their abilities to rank and rate intensities of solutions representing the five basic tastes. Panelists ranked and rated intensity of five different concentrations of each of the five following compounds: sucrose (sweet), sodium chloride (salty), citric acid (sour), caffeine (bitter), and monosodium glutamate (savory). In order to be selected for participation in testing, panelists needed to correctly rank and rate samples for intensity, with a reasonable number of errors.
Preliminary Taste Tests: The panelists selected in the above procedure were deemed qualified for performing Preliminary Taste Testing procedures. The preliminary taste tests are used to evaluate new compounds for intensity of basic tastes and off-tastes. A small group of panelists (n=5) taste approximately 5 concentrations of the compound (range typically between 1-100 μM, in half-log cycles, e.g., 1, 3, 10, 30, and 100 μM) in water and in a solution of 12 mM MSG to evaluate enhancement. Panelists rate the five basic tastes (sweet, salty, sour, bitter, and savory) as well as off-tastes (such as chemical, metallic, sulfur) on a labeled magnitude scale. Samples are served in 10 mL portions at room temperature. The purpose of the test is to determine the highest concentration at which there is no objectionable off-taste, and determine if obvious savory taste or enhancement of savory taste exists at any of the concentrations tested.
Trained Panelist Selection: A trained expert panel was used to further evaluate compounds that had been tested with the preliminary taste test.
Panelists for the trained panel were selected from the larger group of qualifying taste panelists. Panelists were further trained on savory taste by ranking and rating experiments using MSG and IMP combinations. Panelists completed a series of ranking, rating, and difference from reference tests with savory solutions. In ranking and rating experiments, panelists evaluated easy MSG concentrations (0, 6, 18, 36 mM) and more difficult MSG concentrations (3, 6, 12, 18 mM MSG) in water.
Compound testing with Trained Panel: Compounds tested by the trained panel were evaluated in difference from reference experiments. […] Test samples were solutions with varying amounts of MSG, IMP, and the compound. Typically, each session compares the reference sample to numerous test samples. […] Compounds were tested against the reference in samples with and without 12 mM MSG. All samples were presented in 10 ml volumes at room temperature. Two sessions were completed for each compound tested to evaluate panel reproducibility.

[2] = molecular target: T1, hT1R1/hT1R3 umami receptor expressed in an HEK293 cell line (Homo sapiens, UniProt Q7RTX0+Q7RTX1); assay: Umami taste enhancement assay (EC50 ratio vs. MSG); format: cell-based
T1 construct: expressed in transfected cells; host or cells: HEK293 cell line derivative, clone 1-17, expression induced with mifepristone
T1 sequence (Q7RTX1 21-841): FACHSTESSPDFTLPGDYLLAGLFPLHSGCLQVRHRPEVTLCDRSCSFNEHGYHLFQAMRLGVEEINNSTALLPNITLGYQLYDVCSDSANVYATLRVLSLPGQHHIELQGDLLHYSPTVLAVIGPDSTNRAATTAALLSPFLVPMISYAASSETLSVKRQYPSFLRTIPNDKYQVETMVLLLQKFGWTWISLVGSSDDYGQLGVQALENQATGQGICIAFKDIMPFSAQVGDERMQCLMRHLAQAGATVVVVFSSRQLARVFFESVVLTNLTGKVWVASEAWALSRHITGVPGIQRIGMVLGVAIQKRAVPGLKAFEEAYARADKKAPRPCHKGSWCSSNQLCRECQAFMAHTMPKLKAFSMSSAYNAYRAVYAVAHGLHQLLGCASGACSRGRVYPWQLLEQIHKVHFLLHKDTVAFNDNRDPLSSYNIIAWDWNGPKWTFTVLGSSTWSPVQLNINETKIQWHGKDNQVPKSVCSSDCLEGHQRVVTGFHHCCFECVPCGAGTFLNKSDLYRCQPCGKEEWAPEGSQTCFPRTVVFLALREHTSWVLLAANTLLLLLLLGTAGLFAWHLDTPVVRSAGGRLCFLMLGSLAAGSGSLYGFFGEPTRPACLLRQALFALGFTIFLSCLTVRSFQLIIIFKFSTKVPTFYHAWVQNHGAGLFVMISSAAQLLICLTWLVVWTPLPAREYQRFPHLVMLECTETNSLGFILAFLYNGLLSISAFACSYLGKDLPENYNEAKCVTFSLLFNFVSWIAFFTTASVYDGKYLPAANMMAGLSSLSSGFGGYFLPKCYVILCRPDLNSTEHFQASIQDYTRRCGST
T1 sequence (Q7RTX0 21-852): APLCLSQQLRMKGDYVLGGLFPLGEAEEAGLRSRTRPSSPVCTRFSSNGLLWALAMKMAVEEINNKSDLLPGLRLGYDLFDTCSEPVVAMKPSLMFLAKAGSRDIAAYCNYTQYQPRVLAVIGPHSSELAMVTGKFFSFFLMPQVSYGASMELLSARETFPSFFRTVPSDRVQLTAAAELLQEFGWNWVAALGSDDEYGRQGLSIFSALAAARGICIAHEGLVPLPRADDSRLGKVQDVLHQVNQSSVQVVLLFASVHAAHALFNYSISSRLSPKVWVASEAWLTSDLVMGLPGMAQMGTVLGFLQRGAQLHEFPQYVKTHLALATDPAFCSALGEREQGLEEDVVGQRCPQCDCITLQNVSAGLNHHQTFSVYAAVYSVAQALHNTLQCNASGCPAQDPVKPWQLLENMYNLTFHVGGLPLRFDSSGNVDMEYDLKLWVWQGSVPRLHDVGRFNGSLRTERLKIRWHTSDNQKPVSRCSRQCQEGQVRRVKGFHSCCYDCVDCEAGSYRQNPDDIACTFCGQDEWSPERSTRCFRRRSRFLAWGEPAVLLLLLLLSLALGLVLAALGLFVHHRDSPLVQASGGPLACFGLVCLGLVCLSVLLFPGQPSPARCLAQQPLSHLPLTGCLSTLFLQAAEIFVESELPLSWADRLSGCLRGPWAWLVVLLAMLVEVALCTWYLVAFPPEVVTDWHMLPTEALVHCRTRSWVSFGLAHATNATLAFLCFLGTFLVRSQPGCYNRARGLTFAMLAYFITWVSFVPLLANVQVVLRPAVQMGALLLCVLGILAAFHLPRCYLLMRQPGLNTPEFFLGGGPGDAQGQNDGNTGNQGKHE
From the text: In umami taste enhancement activity assay experiments, which produce an “EC50 ratio” measurement of how effectively the amide compounds of the invention enhance the savory flavorant (typically MSG) already in a test solution. A series of measurements of the dose response is run in solutions comprising MSG alone, then a second dose response is run with MSG in combination with predetermined amounts of a candidate compound of Formula (I) at the same time.
In this assay, increasing concentrations of monosodium glutamate (ranging from 12 μM to 81 mM) were presented, in duplicates, in the presence or absence of a fixed concentration of the test compound. Typical compound concentrations tested were 30 μM, 10 μM, 3 μM, 1 μM, 0.3 μM, 0.1 μM and 0.03 μM. The relative efficacy of compounds of […] at enhancing the receptor was determined by calculating the magnitude of a shift in the EC50 for monosodium glutamate. Enhancement was defined as a ratio (EC50R) corresponding to the EC50 of monosodium glutamate, determined in the absence of the test compound, divided by the EC50 of monosodium glutamate, determined in the presence of the test compound.
Stated alternatively, “EC50 ratio” as compared to MSG is calculated based on the following definitions:
EC50 Ratio vs. MSG=EC50 (MSG)/EC50 (MSG+[Compound]) wherein “[compound]” refers to the concentration of the compound of Formula (I) used to elicit (or enhance or potentiate) the MSG dose response.
It should be noted that the EC50 ratio measured can depend somewhat on the concentration of the compound itself. Preferred savory enhancers would have a high EC50 Ratio vs. MSG at a low concentration of the compound used.

[3] = test system: trained tasters, savory, salt, spice flavors; assay: Italian sausage rank-rating intensity taste test; format: in vivo, human; settings: scale 0-10, ten tasters
From the text: Three different dry Italian sausage seasoning mixes were formulated by dry blending the ingredients shown in the Tables below, then rehydrated during the formulation of corresponding sausages. One control sample of seasoning mix (Tables 36-1a, b) contained no MSG, and no compounds of the invention. A second sample of seasoning mix and sausage contained added MSG (Tables 36-2a, b). A third sample of Seasoning mix and corresponding sausage also contained added savory flavor concentrate compositions (prepared as per Example 34) containing (0.1% wt/wt) of compounds 1 and 24 ([…]).
Ten trained tasters were trained to identify the relative intensities of the following taste attributes: salty, savory/meaty, umami, brothiness, bitter, linger and off flavors. A rank-rating intensity test was used to evaluate the Italian Sausagesamples. A rank rating is a difference test to determine whether a sensory difference is perceived between various samples. Samples that were evaluated were the Italian Sausage no MSG, Italian sausage with MSG, Italian sausage with compounds 1 and 24 but no MSG. The panelists evaluated 3 randomized, blind coded samples of one ounce of Italian sausage served at 140° F., and ranked the intensity of savory, salt, spice flavors on a scale of 0-10: 0 being the least intense and 10 being the most intenese, and the scores were averaged for individual category.

COC(=O)[C@@H](CC(C)C)NC(=O)c1cc(OC)nc(OC)c1 [Example 20, (R)-methyl 2-(2,6-dimethoxyisonicotinamido)-4-methylpentanoate]
Taste Data: cpd concentration at which 12 mM MSG + cpd is as strong as 12 mM MSG + 100 μM IMP [1]: 12 mM MSG + 3 μM cpd as

Cc1ccc(CNC(=O)C(=O)NCCc2ccccn2)c(C)c1 [Example 27, N-(2,4-dimethylbenzyl)-N′-(2-(pyridin-2-yl)ethyl)oxalamide]
melting point: 148 to 149 °C

CCOc1ccc(CNC(=O)C(=O)NCCc2ccccn2)c(OC)c1 [Example 28, N-(4-ethoxy-2-methoxybenzyl)-N′-(2-(pyridin-2-yl)ethyl)oxalamide]
melting point: 117 to 118 °C

COC(=O)[C@@H](CC(C)C)NC(=O)c1cc(C)c(C)o1 [Example 19, (R)-methyl 2-(2,3-dimethylfuran-5-carboxamido)-4-methylpentanoate]
Taste Data: cpd concentration at which 12 mM MSG + cpd is as strong as 12 mM MSG + 100 μM IMP [1]: 12 mM MSG + 10 μM cpd as

CCCC(CCC)NC(=O)c1ccc2c(c1)OC(C)O2 (stereo not drawn) [Example 9, N-(heptan-4-yl)-2-methylbenzo[d][1,3]dioxole-5-carboxamide]
EC50 ratio (enhancement of the effectiveness of monosodium glutamate) ([2]; compound present at 0.03 μM): 3.68

COC(=O)[C@@H](CC(C)C)NC(=O)c1ccc(OC)c(Cl)c1 [Example 16, (R)-methyl 2-(3-chloro-4-methoxybenzamido)-4-methylpentanoate]
EC50 ratio (enhancement of the effectiveness of monosodium glutamate) ([2]; compound present at 0.01 μM): 13.18

N[C@@H](CCC(=O)O)C(=O)[O-].[Na+] [MSG, monosodium glutamate]
Average score Salt [3]: 5.24 | Average score Savory [3]: 6.13 | Average score Spice [3]: 5.42

COc1ccc2c(c1)CCC2NC(=O)c1ccc(OC)c(C)c1 (racemic) [Example 22, (R/S)-4-Methoxy-N-(5-methoxy-2,3-dihydro-1H-inden-1-yl)-3-methylbenzamide]
Taste Data: cpd concentration as strong as 12 mM MSG [1]: 1 μM cpd as strong as | Taste Data: cpd concentration at which 12 mM MSG + cpd is as strong as 12 mM MSG + 100 μM IMP [1]: 12 mM MSG + 1 μM cpd as

COc1ccccc1CNC(=O)C(=O)NCCc1ccccn1 [Example 23, N-(2-Methoxy-benzyl)-N′-(2-pyridin-2-yl-ethyl)-oxalamide]
EC50 ratio (enhancement of the effectiveness of monosodium glutamate) ([2]; compound present at 0.3 μM): 18.85 | melting point: 118 to 119 °C

COc1cc(C)ccc1CNC(=O)C(=O)NCCc1ccccn1 [Example 26, N-(2-methoxy-4-methylbenzyl)-N′-(2-(pyridin-2-yl)ethyl)oxalamide]
Taste Data: cpd concentration as strong as 12 mM MSG [1]: 1 μM cpd as strong as | Taste Data: cpd concentration at which 12 mM MSG + cpd is as strong as 12 mM MSG + 100 μM IMP [1]: 12 mM MSG + 1 μM cpd as | melting point: 128 to 131 °C

COC(=O)[C@@H](CC(C)C)NC(=O)c1ccc2c(c1)OCO2 [Example 5, (R)-methyl 2-(benzo[d][1,3]dioxole-6-carboxamido)-4-methylpentanoate]
EC50 ratio (enhancement of the effectiveness of monosodium glutamate) ([2]; compound present at 0.1 μM): 4.9 | Taste Data: cpd concentration at which 12 mM MSG + cpd is as strong as 12 mM MSG + 100 μM IMP [1]: 12 mM MSG + 10 μM cpd as

CC1CCCC(NC(=O)c2ccc3c(c2)OCO3)C1C (stereo not drawn) [Example 4]
EC50 ratio (enhancement of the effectiveness of monosodium glutamate) ([2]; compound present at 1 μM): 8.4

Cc1ccc(CNC(=O)C(=O)NCCc2ccccn2)cc1 [Example 25, N-(4-methyl-benzyl)-N′-(2-pyridin-2-yl-ethyl)-oxalamide]
melting point: 152 to 154 °C

COC[C@@H](CC(C)C)NC(=O)c1ccc(C)c(C)c1 [Example 18, (R)—N-(1-methoxy-4-methylpentan-2-yl)-3,4-dimethylbenzamide]
Taste Data: cpd concentration at which 12 mM MSG + cpd is as strong as 12 mM MSG + 100 μM IMP [1]: 12 mM MSG + 3 μM cpd as
